Experimental data as given in patent publication US8865741B2, “Aminoindane compounds and use thereof in treating pain” (Asana Biosciences, LLC, priority 2011, dated 2014).

Key:
[1] = system: sodium channel in hTRPV1-N1E115 cells; assay: FLIPR membrane potential assay of sodium channel response in hTRPV1-N1E115 cells, with (47° C.) or without (25° C.) heat activation of hTRPV1; format: cell-based; details: for hTRPV1-N1E Nav 0.1 mM (% inhibition) 25° C. / hTRPV1-N1E Nav 1 mM (% inhibition) 25° C.: 25° C. (no heat activation of hTRPV1); for hTRPV1-N1E Nav 0.1 mM (% inhibition) 47° C. / hTRPV1-N1E Nav 1 mM (% inhibition) 47° C.: 47° C. (heat activation of hTRPV1); for IC50: 47° C., class symbols, read-out: hTRPV1-N1E IC50 (μM) 47° C.
Text: In one embodiment, a modified FLIPR® (Fluorometric Imaging Plate Reader) based assay system was developed which is capable of discriminating between non-specific versus hTRPV1-mediated entry of test compounds. Advantageously, the assay system utilizes heat activated opening of hTRPV1 channels followed by an assessment of internal sodium channel block. The assay allows a permanently charged compound to selectively enter through opened hTRPV1 channels and that compound's potency in inhibiting sodium channels from the cytoplasm side of the same cell can be assessed and quantified.
The assay is readily performed in multi-well assay plates into which cells in growth media are added and incubated under conditions which permit the formation of a confluent monolayer over a period of hours prior to the start of the assay. Conventional culture media and conditions may be utilized. Duplicate cell assay plates are prepared for each experiment.
The spent media from the cell seeded plates is removed on the day of the assay and replaced with Membrane potential Dye-Blue (Molecular Devices). The dye was prepared in assay buffer following manufacturer's instructions. The dye-loaded plate is incubated at room temperature (about 25° C.) for about 30 minutes in order to pre-load the cells with dye. Optionally, the cells may be loaded with the dye simultaneously with adding the test compounds.
The test compounds are diluted in the Assay Buffer and added to each well of a specific 384-well ‘compound plate’, which serves as a source plate for compound addition using the FLIPR® platform. The concentration of compounds in the compound-plate was adjusted to achieve the desired final concentration when added to the cells in the ‘cell-plate’. After completion of the dye incubation period, the dye loaded cell-plates and the compound source plates are inserted into the FLIPR® Tetra™ device with a 384 FLIPR® tip box (Molecular Devices, Inc.) according to manufacturer's instructions. The compounds are robotically added to the dye loaded cell-plates using software integral to the FLIPR® Tetra™ instrument.
Immediately following compound addition, hTRPV1 is activated, in one of the duplicate cell plates, by heating. Specifically, entire multi-well plate containing the compound-cells mixture is incubated at 47° C. for 10 minutes, after which they are returned to room temperature (about 25° C.) for a further 30 minutes. Heat activation of hTRPV1 was omitted from the replicate cell plate which was simply maintained at room temperature for the entire 40 minutes.
A membrane potential response is elicited in the dye- and compound-loaded cells by the addition of veratridine which is a known sodium channel ‘agonist’. As illustrated in an example herein, an agonist plate containing veratridine (Sigma) is prepared in advance and is inserted into suitable devices such as, e.g., the FLIPR® TETRA® device for a “2nd addition” as instructed by the manufacturer. The concentration of veratridine in the ‘agonist plate’ was adjusted to achieve a final concentration of 100 μM when added to the cells in the cell-plate. Final concentrations of veratridine greater or lesser than 100 μM may also be used but the signal measured by the FLIPR®^Tetra™ device or another suitable device may vary accordingly.
The exposure of the cells in the cell-plate to veratridine induces sodium channels in the cells to open and the resulting ion flux produces a membrane potential depolarization that is detected as a fluorescence signal by the FLIPR® ^Tetra™ Device. The activity of test compounds is determined by their ability to attenuate the veratridine-induced fluorescence signal, the most promising compounds are those that show an enhanced activity in the heat-activated cell plate over the non-heat-activated cell plate. […]

[2] = system: Male Sprague Dawley (SD) rats; assay: In vivo assay of mechanical nociception (rat pinch model, perisciatic injection); details: for Average Time of Analgesia: perisciatic; for duration of anti-nociception effect: 100 μL injection volume, 0.5% compound with 2% lidocaine (Table 8)
[3] = test compound 0.5%, lidocaine 2%, total injection 100 μL

SMILES | IC50 [1] [µM] | hTRPV1-N1E Nav 0.1 mM (% inhibition) 25° C. [1] [%] | hTRPV1-N1E Nav 0.1 mM (% inhibition) 47° C. [1] | hTRPV1-N1E Nav 1 mM (% inhibition) 25° C. [1] | hTRPV1-N1E Nav 1 mM (% inhibition) 47° C. [1] | also measured
C[N+]1(C)CCCCC1CCN(c1ccccc1F)C1Cc2ccccc2C1.[I-] (centres unmarked) [Example 4, 1,1-dimethyl-2-[2-((2-fluorophenyl)(indan-2-yl)amino)ethyl]piperidinium iodide] | 10 to 100 | 0 | 94.7 (N = 3) % | 0 (N = 3) % | 67.0 (N = 3) % | Average Time of Analgesia [2, 3]: 1 h
CC[N+]1(CC)CCCCC1CCN(c1ccccc1F)C1Cc2ccccc2C1.[I-] (centres unmarked) [Example 16, 1,1-Diethyl-2-[2-((2-fluorophenyl)(indan-2-yl)amino)ethyl]piperidinium iodide] | 10 to 100 | 0 | 92.9 (N = 2) % | Insoluble | Insoluble | duration of anti-nociception effect [2]: up to 6 hours; Average Time of Analgesia [2, 3]: 6 h
CC[N+]1(CC)CCCCC1CCN(c1ccc(C)cc1)C1Cc2ccccc2C1.[I-] (centres unmarked) [Example 23, 1,1-Diethyl-2-[2-((indan-2-yl)(4-methylphenyl)amino)ethyl]piperidinium iodide] | 1 to 10 | 19.7 | 89.6 (N = 2) % | Insoluble | Insoluble | Average Time of Analgesia [2, 3]: 2 h
Cc1ccccc1N(CCC1CCCC[N+]1(C)C)C1Cc2ccccc2C1.[I-] (centres unmarked) [Example 24, 1,1-dimethyl-2-[2-((indan-2-yl)(2-methylphenyl)amino)ethyl]piperidinium iodide] | 1 to 10 | 25.1 | 88.5 (N = 2) % | 57.9 (N = 2) % | 84.2 (N = 2) % | duration of anti-nociception effect [2]: up to 32 hours; Average Time of Analgesia ([2]; test compound 0.25%, lidocaine 0%, total injection 200 μL): 4 h; Average Time of Analgesia ([2]; test compound 0.25%, lidocaine 1%, total injection 200 μL): 24 h; Average Time of Analgesia ([2]; test compound 0.5%, lidocaine 0%, total injection 200 μL): 12 h; Average Time of Analgesia [2, 3]: 32 h; Average Time of Analgesia ([2]; test compound 0.5%, lidocaine 2%, total injection 200 μL): >168 h
C[N+]1(C)CCCCC1CCN(c1ncccn1)C1Cc2ccccc2C1.[I-] (centres unmarked) [Example 38, 1,1-dimethyl-2-[2-((indan-2-yl)(pyrimidine-2-yl)amino)ethyl]piperidinium iodide] |  | 25.9 | 37.5 (N = 2) % | 46.6 (N = 2) % | 70.4 (N = 2) % | 
C[N+]1(C)CCCCC1CCN(c1nccs1)C1Cc2ccccc2C1.[I-] (centres unmarked) [Example 39, 1,1-dimethyl-2-[2-((indan-2-yl)(thiazol-2-yl)amino)ethyl]piperidinium iodide] |  | 10.6 | 11.3 (N = 2) % | 31.3 (N = 2) % | 62.4 (N = 2) % | 
Cc1ccccc1N(CCC1CC[N+](C)(C)CC1)C1Cc2ccccc2C1.[Br-] [Example 40, 1,1-dimethyl-4-[2-((indan-2-yl)(2-methylphenyl)amino)ethyl]piperidinium bromide] | 10 to 100 | 34.3 |  |  |  | 
Cc1ccccc1N(CCC1CCCC[N+]12CCOCC2)C1Cc2ccccc2C1.[Cl-] (centres unmarked) [Example 41, 7-[2-((indan-2-yl)(2-methylphenyl)amino)ethyl]-3-oxa-6-azaspiro[5.5]undecan-6-ium chloride] | 10 to 100 | 8.3 |  |  |  | 
C[N+]1(C)CCCCC1CCN(c1ccc2c(c1)OCCO2)C1Cc2ccccc2C1.[I-] (centres unmarked) [Example 42, 1,1-dimethyl-2-[2-((2,3-dihydrobenzo[b][1,4]dioxin-6-yl)(indan-2-yl)amino)ethyl]piperidinium iodide] |  | 0 | 64.9 (N = 2) % |  |  | 
Cc1ccccc1N(CCC1CC[N+](C)(C)CC1)C1Cc2ccccc2C1.[I-] [Example 45, 1,1-Dimethyl-4-[2-((indan-2-yl)(2-methylphenyl)amino)ethyl]piperidinium iodide] |  | 23.1 | 83.3 (N = 2) % |  |  | 
Cc1ccccc1N(CCC1CCCC[N+]1(CCO)CCO)C1Cc2ccccc2C1.[Br-] (centres unmarked) [Example 46, 1,1-Bis(2-hydroxyethyl)-2-[2-((indan-2-yl)(2-methylphenyl)amino)ethyl]piperidinium bromide] | 10 to 100 | 31.8 | 94.4 (N = 2) % |  |  | 

The next lines start with results.

IC50 [1] [µM] | SMILES | hTRPV1-N1E Nav 0.1 mM (% inhibition) 25° C. [1] [%] | hTRPV1-N1E Nav 0.1 mM (% inhibition) 47° C. [1] | hTRPV1-N1E Nav 1 mM (% inhibition) 25° C. [1] | hTRPV1-N1E Nav 1 mM (% inhibition) 47° C. [1] | also measured
10 to 100 | Cc1cccc(N(CCC2CCCC[N+]2(C)C)C2Cc3ccccc3C2)n1.[I-] (centres unmarked) [Example 47, 1,1-Dimethyl-2-[2-((indan-2-yl)(6-methylpyridine-2-yl)amino)ethyl]piperidinium iodide] | 30.7 | 79.5 (N = 2) % |  |  | 
10 to 100 | Cc1cccc(N(CCC2CCCC[N+]2(C)C)C2Cc3ccccc3C2)n1.[Br-] (centres unmarked) [Example 48, 1,1-Dimethyl-2-[2-((indan-2-yl)(6-methylpyridine-2-yl)amino)ethyl]piperidinium bromide] | 29.6 |  |  |  | 
10 to 100 | CC[N+]1(CC)CCCC[C@H]1CCN(c1ccccc1)C1Cc2ccccc2C1.[Br-] [Example 49, (S)-1,1-Diethyl-2-[2-((indan-2-yl)(phenyl)amino)ethyl]piperidinium bromide] | 22.2 |  |  |  | 
10 to 100 | Cc1ccccc1N(CCC1CCCC[N+]1(C)C)C1Cc2ccccc2C1 (centres unmarked) [Example 50, 1,1-Dimethyl-2-[2-((indan-2-yl)(2-methylphenyl)amino)ethyl]piperidinium chloride] |  |  |  |  | 
1 to 10 | Cc1ccccc1N(CC[C@H]1CCCC[N+]1(C)C)C1Cc2ccccc2C1 [Example 51, (R)-1,1-Dimethyl-2-[2-((indan-2-yl)(2-methylphenyl)amino)ethyl]piperidinium chloride] |  |  |  |  | 
10 to 100 | Cc1ccccc1N(CCC1CCCC[N+]1(C)C)C1Cc2ccccc2C1 (centres unmarked) [Example 52, 1,1-Dimethyl-2-[2-((indan-2-yl)(2-methylphenyl)amino)ethyl]piperidinium bromide] |  |  |  |  | 
